Key:
[1] = molecular target: T1, recombinant human B1 receptors (Homo sapiens, UniProt P46663); experiment: Antagonist potency by measurement of cytosolic calcium ion concentration in CHO-B1 cells (agonist LysDABK); format: cell-based; details: inhibition of LysDABK (EC80)-evoked [Ca2+]i elevation, fluo-4, read-out: B1 func.
T1 construct: host or cells: CHO (CHO-B1)
T1 sequence (P46663 1-353): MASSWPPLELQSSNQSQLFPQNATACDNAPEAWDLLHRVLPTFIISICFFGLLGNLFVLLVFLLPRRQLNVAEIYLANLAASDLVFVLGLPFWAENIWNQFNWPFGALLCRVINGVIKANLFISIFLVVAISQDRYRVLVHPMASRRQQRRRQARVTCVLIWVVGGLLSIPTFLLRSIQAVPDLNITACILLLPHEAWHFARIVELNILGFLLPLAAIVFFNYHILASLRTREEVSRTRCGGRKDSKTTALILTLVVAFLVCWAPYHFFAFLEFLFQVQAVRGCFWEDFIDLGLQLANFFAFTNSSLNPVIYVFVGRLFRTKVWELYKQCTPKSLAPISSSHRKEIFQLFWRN
Procedure: Assessment of Antagonist Potency at B1 and B2 Receptors In Vitro by Measurement of Cytosolic Calcium Ion Concentration with a Plate Reader Fluorimeter in Cells Expressing Recombinant Human B1 or B2 Receptors
Chinese hamster ovary (CHO) cells stably expressing recombinant human B1 (CHO-B1, Euroscreen) or B2 (CHO-B2, Perkin-Elmer) receptors were cultured in Dulbecco's Modified Eagle's Medium (DMEM) containing 10% Fetal Calf Serum (FCS), 100 U/ml penicillin, 0.1 mg/ml streptomycin, 0.25 μg/ml amphotericin B, 1% Minimum Essential Medium Eagle (MEM), non essential amino acid solution, 600 μg/ml G418, 1% pyruvate (for the B2 cell line). Cells were kept at 37° C. in a humidified incubator in an atmosphere of 5% CO2/95% air and were passaged 1:4 three times a week. Cells were plated at 1.5-2.5×10^4 cell/well on standard 96-well microplates, measurements of cytosolic calcium ion concentration ([Ca^2+]i) were carried out 1-2 days after cell plating.
Measurements of [Ca^2+]i were carried out on CHO-B1 and CHO-B2 cells stably expressing human B1 and B2 receptors, respectively. Cells were grown in standard 96-well microplates and before the measurement were loaded with a fluorescent Ca^2+-sensitive dye, fluo-4/AM (2 μM): after removing the culture medium the dye was added to the cells (dissolved in assay buffer: 145 mM NaCl, 5 mM KCl, 2 mM MgCl2, 2 mM CaCl2, 10 mM HEPES, 20 mM D-glucose, 2 mM probenecid, 100 μl/well) and cells were incubated at 37° C. in a humidified incubator in an atmosphere of 5% CO2/95% air for 40-120 min. To stop dye loading cells were washed twice with assay buffer. After washing, various concentrations of the test compounds (diluted in extracellular medium from a DMSO stock solution, final DMSO concentration was <0.1%) or buffer were added to each well depending on the experimental setup. After incubation at 37° C. for 20-25 min. baseline and agonist-evoked changes of [Ca^2+]i were measured column by column with a plate reader fluorimeter (Fluoroskan Ascent, Labsystems). Excitation and detection of emission was carried out from the bottom of the plate. Filters used for Fluo-4: excitation filter −485 nm, emission filter −538 nm. The whole measurement process was performed at 37° C. and was controlled by custom software. Inhibitory potency of the test compounds was assessed by measuring the reduction in the agonist-evoked [Ca^2+]i-elevation in the presence of different concentrations of the compounds. The agonists were LysDABK for CHO-B1, and bradykinin for CHO-B2 cells. Agonists were applied at an EC80 concentration, the EC80-values were derived from daily determined dose-response curves. Fluorescence data were expressed as ΔF/F (fluorescence change normalized to baseline). All treatments on a single plate were measured in multiple wells. Data from all wells with the same treatment were averaged and the average values were used for analysis. Inhibitory potency of a compound at a single concentration point was expressed as percent inhibition of the control agonist response. Sigmoidal concentration-inhibition curves were fitted to the data (derived from at least three independent experiments) and IC50-values were determined as the concentration that produces half of the maximal inhibition caused by the compound.

[2] = molecular target: T2, human recombinant bradykinin1 receptors (Homo sapiens, UniProt P46663); experiment: Human recombinant bradykinin B1 receptor binding; details: CHO cell membranes, [3H]-[Des-Arg10] Kallidin radioligand
T2 construct: host or cells: CHO cells
T2 sequence (P46663 1-353): T1 sequence (P46663 1-353)
Procedure: Receptor Binding Assays 1. Human Recombinant Bradykinin B1 Receptor Binding
Binding assays were carried out on human recombinant bradykinin1 receptors (expressed in CHO cells) according to the Euroscreen Technical Data Sheet (Cat. No.: ES-091). 20 μg protein/tube was incubated with [3,4-prolyl-3,4-^3H(N)]-[Des-Arg^10] Kallidin as radioligand. Non specific binding was determined in the presence of 10 μM Lys-des-Arg^9-Bradykinin. The final incubation volume was 250 μl. Samples were incubated for 15 min. at 25° C. then were rapidly vacuum filtered through GF/B filters presoaked for at least 1 h in 0.5% PEI. Radioactivity was determined by liquid scintillation spectroscopy.

Row | IC50 [1] [nM] | Ki [2] [nM] | Compound
1 | 100 to 500 | < 100 | CC(C)N1CCN(C(=O)C2CCN(S(=O)(=O)c3ccc(NCC(c4ccccc4)c4ccccc4)c(C(=O)N4CCOCC4)c3)CC2)CC1 [Example 70002460, 4-{2-[(2,2-diphenyl-ethyl)-amino]-5-{[4-/(4-<1-methyl-ethyl>-1-piperazinyl)-carbonyl/-1-piperidinyl]-sulfonyl}-benzoyl}-morpholine, reference compound]
2 | < 100 | < 100 | O=C(C[C@@H]1C(=O)Nc2ccccc2N1S(=O)(=O)c1ccc(Cl)c(Cl)c1)NCCc1ccc(C2=NCCN2)cc1 [Example 70004287, 2-[1-(3,4-dichloro-benzenesulfonyl)-3-oxo-1,2,3,4-tetrahydroquinoxalin-2(R)-yl]-N-{2-[4-(4,5-dihydro-1H-imidazol-2-yl)-phenyl]-ethyl}-acetamide, reference compound]
